Experimental findings from ChEMBL document CHEMBL4725240, “Non-'classical' MEKs: A review of MEK3-7 inhibitors” (Bioorg Med Chem Lett, 2020) are described below.

As a reminder, the pIC50 is −log10 of the IC50, conventionally taken in molar units. The inhibition is the relative decrease from the control value, in per cent.

SMILES strings stand for the structures. pIC50: −log10 of the molar value.

Experiment [1] is filed under the species Homo sapiens. Briefly: Selectivity ratio of IC50 for ERK5 (unknown origin) to IC50 for MEK5 (unknown origin).
Experiment [2] is filed under the species Homo sapiens. Briefly: Selectivity ratio of IC50 for TGFbetaR1 (unknown origin) to IC50 for MEK5 (unknown origin).
Experiment [3] has as its target T1, Dual specificity mitogen-activated protein kinase kinase 6 (Homo sapiens, UniProt P52564).
T1 sequence (P52564 whole entry): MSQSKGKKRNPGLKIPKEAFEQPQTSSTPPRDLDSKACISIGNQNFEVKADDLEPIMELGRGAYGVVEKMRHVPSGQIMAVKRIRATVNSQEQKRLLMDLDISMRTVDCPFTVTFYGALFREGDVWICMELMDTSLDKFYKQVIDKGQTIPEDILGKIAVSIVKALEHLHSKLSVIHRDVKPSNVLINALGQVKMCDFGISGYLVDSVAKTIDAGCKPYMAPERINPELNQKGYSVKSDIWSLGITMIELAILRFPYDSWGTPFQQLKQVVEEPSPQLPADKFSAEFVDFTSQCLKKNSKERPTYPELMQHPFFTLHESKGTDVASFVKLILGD
As to the kind of experiment: Inhibition of MEK6 (unknown origin).

Experiment [4] is filed under the species Homo sapiens. Briefly: Selectivity ratio of IC50 for MEK3 (unknown origin) to IC50 for MEK6 (unknown origin).
For experiment [5], the species on record is Homo sapiens. Briefly: Selectivity ratio of IC50 for MEK4 (unknown origin) to IC50 for MEK6 (unknown origin).
The species named for experiment [6] is Homo sapiens. As to the kind of experiment: Selectivity ratio of IC50 for MEK2 (unknown origin) to IC50 for MEK6 (unknown origin).
Experiment [7] is filed under the species Homo sapiens. As to the kind of experiment: Selectivity ratio of IC50 for MEK1 (unknown origin) to IC50 for MEK6 (unknown origin).
Experiment [8] concerns the target T2, Dual specificity mitogen-activated protein kinase kinase 4 (Homo sapiens) (UniProt P45985).
T2 sequence (whole entry): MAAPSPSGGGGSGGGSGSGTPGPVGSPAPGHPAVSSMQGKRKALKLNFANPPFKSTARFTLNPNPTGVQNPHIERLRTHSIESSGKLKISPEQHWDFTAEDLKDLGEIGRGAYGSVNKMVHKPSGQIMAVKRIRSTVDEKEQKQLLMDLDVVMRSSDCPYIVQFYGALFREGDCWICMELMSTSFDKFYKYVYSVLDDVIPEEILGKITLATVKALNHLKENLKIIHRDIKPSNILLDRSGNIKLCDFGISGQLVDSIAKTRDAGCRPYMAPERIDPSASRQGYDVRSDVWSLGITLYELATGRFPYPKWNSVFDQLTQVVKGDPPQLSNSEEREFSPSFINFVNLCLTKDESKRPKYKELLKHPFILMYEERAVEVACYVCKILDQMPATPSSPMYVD
As to the kind of experiment: Inhibition of wild type recombinant human MEK4 (S84 to D399 residues) at 1 uM relative to control.

Experiment [9] has as its target Aurora kinase B (Homo sapiens) (UniProt Q96GD4). As to the kind of experiment: Inhibition of N- terminal GST-tagged/His6-tagged human recombinant full length Aurora kinase B ([…]) expressed in baculovirus sf21 cells at 1 uM relative to control.
Experiment [10] deals with Leucine-rich repeat serine/threonine-protein kinase 2 (Homo sapiens) (UniProt Q5S007). As to the kind of experiment: Inhibition of wild type full length recombinant human LRRK2 (H970 to E2527 residues) at 1 uM relative to control.
The target of experiment [11] is T3, Dual specificity mitogen-activated protein kinase kinase 7 (Homo sapiens, UniProt O14733).
T3 sequence (O14733 whole entry): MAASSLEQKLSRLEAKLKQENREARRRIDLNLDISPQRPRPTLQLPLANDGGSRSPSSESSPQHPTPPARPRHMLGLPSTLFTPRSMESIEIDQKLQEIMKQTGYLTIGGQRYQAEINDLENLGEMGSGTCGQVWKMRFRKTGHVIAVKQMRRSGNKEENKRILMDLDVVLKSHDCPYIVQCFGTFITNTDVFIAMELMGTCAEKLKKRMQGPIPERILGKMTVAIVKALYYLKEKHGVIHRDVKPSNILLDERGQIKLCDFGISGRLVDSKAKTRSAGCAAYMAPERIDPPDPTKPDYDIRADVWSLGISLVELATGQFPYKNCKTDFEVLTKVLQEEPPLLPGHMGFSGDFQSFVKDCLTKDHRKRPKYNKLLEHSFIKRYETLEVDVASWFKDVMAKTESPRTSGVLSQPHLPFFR
Briefly: Inhibition of MEK7 (unknown origin).

Experiment [12] is filed under the species Homo sapiens. Briefly: Selectivity ratio of IC50 for CDC25A (unknown origin) to IC50 for MEK7 (unknown origin).
For experiment [13], the species on record is Homo sapiens. As to the kind of experiment: Selectivity ratio of IC50 for CDC25B (unknown origin) to IC50 for MEK7 (unknown origin).
A short description of experiment [14]: Inhibition of flag-tagged MEK4 Q253Y/I258V/R262M mutant (unknown origin) expressed in HEK-293T cells after 20 mins in presence of [32P]-ATP. In kind it is cell-based, Homo sapiens.
A short description of experiment [15]: Inhibition of HA-tagged MEK7 R283Y/K288V/R292M mutant (unknown origin) expressed in HEK-293T cells after 20 mins in presence of [32P]-ATP. The format is cell-based, Homo sapiens.
Experiment [16] deals with T4, Tyrosine-protein kinase JAK3 (Homo sapiens) (UniProt P52333).
T4 sequence (whole entry): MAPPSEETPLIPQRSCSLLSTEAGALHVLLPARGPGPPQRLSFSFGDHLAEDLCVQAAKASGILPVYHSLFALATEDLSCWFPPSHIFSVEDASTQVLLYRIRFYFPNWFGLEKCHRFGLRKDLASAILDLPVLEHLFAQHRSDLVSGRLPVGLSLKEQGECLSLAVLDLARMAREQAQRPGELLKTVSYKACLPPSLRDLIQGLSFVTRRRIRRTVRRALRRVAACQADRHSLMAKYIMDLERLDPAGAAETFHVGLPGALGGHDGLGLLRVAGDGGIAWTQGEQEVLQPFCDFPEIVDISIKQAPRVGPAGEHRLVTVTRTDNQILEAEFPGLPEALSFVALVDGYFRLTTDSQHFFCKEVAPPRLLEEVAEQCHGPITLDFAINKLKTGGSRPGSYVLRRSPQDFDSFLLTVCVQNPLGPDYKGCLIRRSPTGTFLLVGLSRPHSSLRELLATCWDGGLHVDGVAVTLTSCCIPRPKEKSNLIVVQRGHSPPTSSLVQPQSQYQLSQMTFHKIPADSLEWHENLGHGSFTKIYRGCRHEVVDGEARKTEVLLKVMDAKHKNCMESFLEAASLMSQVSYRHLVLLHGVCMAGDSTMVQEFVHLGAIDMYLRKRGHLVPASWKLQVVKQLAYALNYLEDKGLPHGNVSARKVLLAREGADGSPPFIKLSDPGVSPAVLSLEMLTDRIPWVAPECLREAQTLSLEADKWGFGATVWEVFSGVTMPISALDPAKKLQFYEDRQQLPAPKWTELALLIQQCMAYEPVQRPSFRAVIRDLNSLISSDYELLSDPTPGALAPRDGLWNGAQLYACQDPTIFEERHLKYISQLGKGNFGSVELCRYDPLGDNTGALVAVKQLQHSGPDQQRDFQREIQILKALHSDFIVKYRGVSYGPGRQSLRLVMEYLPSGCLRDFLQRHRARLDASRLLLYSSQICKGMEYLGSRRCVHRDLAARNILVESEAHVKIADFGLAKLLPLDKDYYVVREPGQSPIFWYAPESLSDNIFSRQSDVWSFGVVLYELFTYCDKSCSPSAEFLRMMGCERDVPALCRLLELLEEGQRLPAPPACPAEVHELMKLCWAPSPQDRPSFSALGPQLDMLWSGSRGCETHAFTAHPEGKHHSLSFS
Briefly: Inhibition of recombinant human N-terminal His6-tagged JAK3 (781 to end residues) expressed in baculovirus infected Sf21 cells at 1 uM relative to control.

Chain of Aurora kinase B (Homo sapiens) (Q96GD4 whole entry, the tested form may be a part): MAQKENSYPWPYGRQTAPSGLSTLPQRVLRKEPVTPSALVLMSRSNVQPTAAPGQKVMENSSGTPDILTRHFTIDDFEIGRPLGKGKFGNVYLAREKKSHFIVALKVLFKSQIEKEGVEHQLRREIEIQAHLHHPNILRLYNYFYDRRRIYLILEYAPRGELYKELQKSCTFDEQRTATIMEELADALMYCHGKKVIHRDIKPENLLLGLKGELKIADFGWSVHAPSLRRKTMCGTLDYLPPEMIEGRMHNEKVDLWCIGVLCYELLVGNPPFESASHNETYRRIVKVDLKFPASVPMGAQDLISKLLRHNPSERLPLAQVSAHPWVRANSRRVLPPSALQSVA
Chain of Leucine-rich repeat serine/threonine-protein kinase 2 (Homo sapiens) (Q5S007 whole entry, the tested form may be a part): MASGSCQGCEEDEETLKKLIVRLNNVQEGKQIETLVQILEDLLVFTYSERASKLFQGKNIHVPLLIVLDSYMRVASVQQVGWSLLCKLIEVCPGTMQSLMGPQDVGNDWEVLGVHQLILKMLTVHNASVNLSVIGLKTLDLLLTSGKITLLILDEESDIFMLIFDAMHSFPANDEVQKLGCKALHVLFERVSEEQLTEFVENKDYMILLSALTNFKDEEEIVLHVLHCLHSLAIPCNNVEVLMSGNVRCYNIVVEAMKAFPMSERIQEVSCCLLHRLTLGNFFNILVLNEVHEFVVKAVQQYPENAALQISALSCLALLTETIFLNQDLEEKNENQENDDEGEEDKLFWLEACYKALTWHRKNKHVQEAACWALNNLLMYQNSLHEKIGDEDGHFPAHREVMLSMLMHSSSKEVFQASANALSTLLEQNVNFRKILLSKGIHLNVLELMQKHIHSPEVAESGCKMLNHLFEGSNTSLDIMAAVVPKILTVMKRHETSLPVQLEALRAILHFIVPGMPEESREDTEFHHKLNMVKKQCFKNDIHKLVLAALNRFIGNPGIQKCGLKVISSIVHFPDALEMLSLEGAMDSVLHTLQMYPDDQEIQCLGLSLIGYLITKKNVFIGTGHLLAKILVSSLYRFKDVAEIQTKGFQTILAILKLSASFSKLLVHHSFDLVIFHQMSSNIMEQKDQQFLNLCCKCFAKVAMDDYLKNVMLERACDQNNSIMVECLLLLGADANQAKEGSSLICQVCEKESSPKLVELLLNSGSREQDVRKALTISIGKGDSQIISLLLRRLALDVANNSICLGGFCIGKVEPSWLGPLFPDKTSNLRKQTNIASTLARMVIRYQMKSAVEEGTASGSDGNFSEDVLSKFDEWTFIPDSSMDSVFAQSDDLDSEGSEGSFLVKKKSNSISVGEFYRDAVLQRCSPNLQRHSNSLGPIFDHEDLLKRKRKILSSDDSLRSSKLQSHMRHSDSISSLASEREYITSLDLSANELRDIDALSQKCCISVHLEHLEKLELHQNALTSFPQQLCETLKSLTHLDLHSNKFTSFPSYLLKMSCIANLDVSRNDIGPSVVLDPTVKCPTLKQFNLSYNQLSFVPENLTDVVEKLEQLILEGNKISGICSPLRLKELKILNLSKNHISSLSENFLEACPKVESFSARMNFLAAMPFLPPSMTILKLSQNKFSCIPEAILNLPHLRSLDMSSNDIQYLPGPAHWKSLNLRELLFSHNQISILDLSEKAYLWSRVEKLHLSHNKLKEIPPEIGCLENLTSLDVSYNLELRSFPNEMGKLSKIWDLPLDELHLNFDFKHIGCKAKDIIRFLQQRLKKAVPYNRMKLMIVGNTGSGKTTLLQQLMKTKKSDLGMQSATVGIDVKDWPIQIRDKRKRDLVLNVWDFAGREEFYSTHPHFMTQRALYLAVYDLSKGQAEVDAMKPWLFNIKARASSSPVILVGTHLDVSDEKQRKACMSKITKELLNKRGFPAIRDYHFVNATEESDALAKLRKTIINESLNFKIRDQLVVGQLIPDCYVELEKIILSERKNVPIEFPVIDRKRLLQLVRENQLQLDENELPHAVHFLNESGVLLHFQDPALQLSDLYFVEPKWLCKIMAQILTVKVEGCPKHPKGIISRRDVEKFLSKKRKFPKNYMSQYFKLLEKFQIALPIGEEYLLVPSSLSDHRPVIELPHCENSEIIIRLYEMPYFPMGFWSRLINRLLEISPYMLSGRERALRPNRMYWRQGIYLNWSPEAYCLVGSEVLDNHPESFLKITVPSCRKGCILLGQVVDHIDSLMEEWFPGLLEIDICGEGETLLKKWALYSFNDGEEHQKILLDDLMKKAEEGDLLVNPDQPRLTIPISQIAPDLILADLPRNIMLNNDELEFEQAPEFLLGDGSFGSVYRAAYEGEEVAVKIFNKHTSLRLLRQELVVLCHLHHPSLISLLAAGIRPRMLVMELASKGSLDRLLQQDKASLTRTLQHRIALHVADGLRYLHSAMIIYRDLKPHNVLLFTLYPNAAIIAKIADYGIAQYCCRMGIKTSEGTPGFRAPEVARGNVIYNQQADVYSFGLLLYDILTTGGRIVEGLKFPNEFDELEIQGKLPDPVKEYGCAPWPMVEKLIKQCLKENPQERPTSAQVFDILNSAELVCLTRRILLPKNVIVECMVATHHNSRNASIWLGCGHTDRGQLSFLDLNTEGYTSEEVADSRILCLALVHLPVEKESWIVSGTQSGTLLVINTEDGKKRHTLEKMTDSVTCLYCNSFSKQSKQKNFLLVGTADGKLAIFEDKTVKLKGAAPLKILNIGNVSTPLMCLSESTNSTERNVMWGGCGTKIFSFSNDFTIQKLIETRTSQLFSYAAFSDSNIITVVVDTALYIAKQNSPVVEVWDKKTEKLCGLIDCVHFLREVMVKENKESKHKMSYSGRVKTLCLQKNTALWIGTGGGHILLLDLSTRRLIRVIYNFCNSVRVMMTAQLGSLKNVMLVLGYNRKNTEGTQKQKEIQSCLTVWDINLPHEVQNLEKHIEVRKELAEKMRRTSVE

For the compound `CN(C)Cc1cccc(N/C(=C2\C(=O)Nc3cc(C(N)=O)ccc32)c2ccccc2)c1`, the Ratio IC50 in the experiment filed under Homo sapiens [1] worked out at 60; in the experiment filed under Homo sapiens [2] it was 580.
In turn, `C=C(CC)C(=O)c1ccc(OCC(=O)O)c(Cl)c1Cl` [ETHACRYNIC ACID] showed a pIC50 in experiment [3] of 5.35. Moreover, the Ratio IC50 in the experiment filed under Homo sapiens [4] stood at 3; in the experiment filed under Homo sapiens [5] it was 3; in the experiment filed under Homo sapiens [6], 9; in the experiment filed under Homo sapiens [7], 12.
As for `C=CC(=O)Nc1cccc(-c2n[nH]c3cc(C)ccc23)c1`, the inhibition in experiment [8], in [9] and in experiment [10] was more than 75% each time.
The compound `O=C(O)c1cccc(NC2=CC(=O)c3ccccc3C2=O)c1` gave a pIC50 in experiment [11] of 5.72. The results for the Ratio IC50 in the experiment filed under Homo sapiens [12] and in the experiment listed under Homo sapiens [13] were 17 and 12, respectively.
For `COc1ccc2c(Cc3ccc(O[Si](C)(C)C(C)(C)C)cc3)c3[n+](cc2c1OC)CCc1ccccc1-3`, the results for the pIC50 in experiment [14] and in experiment [15] were 5.22 and 5.00, respectively.
In the case of `C=CC(=O)Nc1cccc(-c2n[nH]c3ccccc23)c1`, the inhibition in experiment [8], in [16], in experiment [9] and in experiment [10] was more than 75% each time.
As to `O=C(O)CCSC1=CC(=O)c2ccccc2C1=O`, the pIC50 in experiment [11] was 6.64.
